Source: ChEMBL document CHEMBL1153669, “Rs-100235: A high affinity 5-HT4 receptor antagonist” (Bioorg Med Chem Lett, 1995)
Each block holds one molecule with its values, some of them ahead of it. Calls of active or inactive are those of the source. No cut-off for these calls is given here.

Experiments:
[1] = target: 5-hydroxytryptamine receptor 4 (Rattus norvegicus) (UniProt Q62758); assay: Antagonist activity against 5-HT4 receptor mediated relaxation of rat carbachol contracted esophageal muscularis mucosae; format: functional
Sus scrofa [2] = assay: Antagonism of 5-HT-induced tachycardia in anesthetized, vagotomized Yucatan micropigs at 0.1-300 ug/kg dose administered intravenously; format: functional; conditions: iv, read-out: ID50 (the source's name)
Sus scrofa [3] = assay: Antagonism of 5-HT-induced tachycardia in anesthetized, vagotomized Yucatan micropigs at 3-3000 ug/kg dose administered intraduodenally; no effect; format: functional, organism-based
[4] = Compound was tested for its half-life period at an intravenous dose of 30 ug/kg; format: ADME, organism-based, Sus scrofa; conditions: pig, in vivo, 0.03 mg/kg
[5] = target: T1, 5-hydroxytryptamine receptor 1A (Mus musculus, UniProt Q64264); assay: Compound was evaluated for binding affinity against 5-hydroxytryptamine 1A receptor using radioligand binding assay
T1 sequence (Q64264 whole entry): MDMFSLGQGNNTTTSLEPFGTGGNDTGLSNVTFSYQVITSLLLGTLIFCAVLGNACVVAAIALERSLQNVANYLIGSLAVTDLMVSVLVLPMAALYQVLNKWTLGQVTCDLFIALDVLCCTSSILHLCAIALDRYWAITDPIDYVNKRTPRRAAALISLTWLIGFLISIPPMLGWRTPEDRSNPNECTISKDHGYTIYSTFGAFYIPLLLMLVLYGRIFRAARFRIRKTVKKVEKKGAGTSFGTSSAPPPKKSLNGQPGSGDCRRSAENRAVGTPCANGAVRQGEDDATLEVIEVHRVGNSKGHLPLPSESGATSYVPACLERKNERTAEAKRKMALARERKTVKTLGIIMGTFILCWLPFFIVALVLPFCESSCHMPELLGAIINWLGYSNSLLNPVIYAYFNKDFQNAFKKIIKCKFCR

[6] = target: T2, Muscarinic acetylcholine receptor M2 (Homo sapiens, UniProt P08172); assay: Compound was evaluated for binding affinity against Muscarinic M2 receptor using radioligand binding assay
T2 sequence (P08172 whole entry): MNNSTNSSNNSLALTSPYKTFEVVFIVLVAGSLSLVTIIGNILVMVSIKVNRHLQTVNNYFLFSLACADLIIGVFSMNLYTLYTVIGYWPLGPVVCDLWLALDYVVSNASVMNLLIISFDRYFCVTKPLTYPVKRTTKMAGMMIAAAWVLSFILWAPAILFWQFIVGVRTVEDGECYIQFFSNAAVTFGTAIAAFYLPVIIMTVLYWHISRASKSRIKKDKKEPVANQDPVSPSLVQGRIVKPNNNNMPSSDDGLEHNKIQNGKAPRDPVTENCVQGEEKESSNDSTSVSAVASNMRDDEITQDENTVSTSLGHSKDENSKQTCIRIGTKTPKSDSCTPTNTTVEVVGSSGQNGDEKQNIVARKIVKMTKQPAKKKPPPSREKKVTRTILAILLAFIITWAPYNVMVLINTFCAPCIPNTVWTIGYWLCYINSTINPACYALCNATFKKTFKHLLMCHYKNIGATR

[7] = target: T3, Alpha-1B adrenergic receptor (Homo sapiens, UniProt P35368); assay: Compound was evaluated for binding affinity against Alpha-1B adrenergic receptor using radioligand binding assay
T3 sequence (P35368 whole entry): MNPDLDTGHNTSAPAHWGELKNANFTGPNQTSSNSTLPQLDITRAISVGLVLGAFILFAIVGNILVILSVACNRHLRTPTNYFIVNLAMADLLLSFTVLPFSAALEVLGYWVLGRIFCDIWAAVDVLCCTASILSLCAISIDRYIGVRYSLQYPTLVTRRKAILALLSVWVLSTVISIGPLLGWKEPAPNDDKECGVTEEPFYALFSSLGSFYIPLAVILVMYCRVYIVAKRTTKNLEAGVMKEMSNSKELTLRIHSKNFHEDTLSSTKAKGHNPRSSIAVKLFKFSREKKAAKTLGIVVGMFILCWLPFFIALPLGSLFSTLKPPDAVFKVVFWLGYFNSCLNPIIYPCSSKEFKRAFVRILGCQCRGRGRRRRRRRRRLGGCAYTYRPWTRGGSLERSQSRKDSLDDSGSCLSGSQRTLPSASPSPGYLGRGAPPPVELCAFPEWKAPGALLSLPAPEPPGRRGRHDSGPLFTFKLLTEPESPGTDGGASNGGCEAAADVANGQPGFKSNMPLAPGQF

[8] = target: 5-hydroxytryptamine receptor 2A (Homo sapiens, UniProt P28223); assay: Compound was evaluated for binding affinity against 5-hydroxytryptamine 2A receptor using radioligand binding assay
[9] = Compound was tested for its half-life period at an intravenous dose of 3 ug/kg; format: ADME, organism-based, Sus scrofa; conditions: pig, in vivo, 0.003 mg/kg
[10] = target: T4, 5-hydroxytryptamine receptor 2C (Homo sapiens, UniProt P28335); assay: Compound was evaluated for binding affinity against 5-hydroxytryptamine 2C receptor using radioligand binding assay
T4 sequence (P28335 whole entry): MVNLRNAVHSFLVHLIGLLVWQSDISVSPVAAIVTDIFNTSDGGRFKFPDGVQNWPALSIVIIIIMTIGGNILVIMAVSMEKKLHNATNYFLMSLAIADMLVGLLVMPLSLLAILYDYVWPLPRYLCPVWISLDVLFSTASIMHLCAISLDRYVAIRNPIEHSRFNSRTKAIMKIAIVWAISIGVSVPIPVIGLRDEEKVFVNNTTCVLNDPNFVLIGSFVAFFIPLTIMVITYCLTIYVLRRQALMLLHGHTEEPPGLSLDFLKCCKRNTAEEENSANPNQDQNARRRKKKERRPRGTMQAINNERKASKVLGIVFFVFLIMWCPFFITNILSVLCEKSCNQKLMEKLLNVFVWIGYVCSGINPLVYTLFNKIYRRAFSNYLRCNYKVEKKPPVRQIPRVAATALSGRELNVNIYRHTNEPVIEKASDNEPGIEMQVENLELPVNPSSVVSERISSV

[11] = target: T5, Alpha-1A adrenergic receptor (Homo sapiens, UniProt P35348); assay: Compound was evaluated for binding affinity against Alpha-1C adrenergic receptor using radioligand binding assay
T5 sequence (P35348 whole entry): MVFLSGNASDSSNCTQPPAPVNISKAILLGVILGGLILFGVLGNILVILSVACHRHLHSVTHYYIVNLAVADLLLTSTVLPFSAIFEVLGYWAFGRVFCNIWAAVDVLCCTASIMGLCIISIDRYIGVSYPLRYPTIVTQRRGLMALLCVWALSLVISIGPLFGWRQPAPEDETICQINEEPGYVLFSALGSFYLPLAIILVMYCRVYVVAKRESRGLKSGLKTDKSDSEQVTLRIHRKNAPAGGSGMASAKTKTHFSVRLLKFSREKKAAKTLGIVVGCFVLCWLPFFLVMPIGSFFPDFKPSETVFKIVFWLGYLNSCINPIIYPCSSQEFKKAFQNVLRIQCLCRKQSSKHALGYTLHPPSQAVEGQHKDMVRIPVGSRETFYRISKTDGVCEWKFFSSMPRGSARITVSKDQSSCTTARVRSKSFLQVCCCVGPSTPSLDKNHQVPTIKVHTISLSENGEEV

[12] = target: T6, Muscarinic acetylcholine receptor M1 (Homo sapiens, UniProt P11229); assay: Compound was evaluated for binding affinity against Muscarinic M1 receptor using radioligand binding assay
T6 sequence (P11229 whole entry): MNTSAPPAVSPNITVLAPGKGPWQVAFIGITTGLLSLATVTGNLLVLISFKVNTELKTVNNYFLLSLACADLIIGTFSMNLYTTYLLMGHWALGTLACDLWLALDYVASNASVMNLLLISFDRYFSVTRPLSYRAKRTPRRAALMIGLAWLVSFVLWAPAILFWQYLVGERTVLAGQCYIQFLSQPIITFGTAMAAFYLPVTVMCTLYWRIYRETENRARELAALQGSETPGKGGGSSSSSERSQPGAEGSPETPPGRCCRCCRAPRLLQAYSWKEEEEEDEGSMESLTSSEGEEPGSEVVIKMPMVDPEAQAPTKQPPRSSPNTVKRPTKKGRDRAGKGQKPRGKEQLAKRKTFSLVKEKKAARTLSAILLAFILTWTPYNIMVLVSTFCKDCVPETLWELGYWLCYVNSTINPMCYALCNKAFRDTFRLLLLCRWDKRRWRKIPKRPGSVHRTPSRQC

[13] = target: T7, Type-2 angiotensin II receptor (Homo sapiens, UniProt P50052); assay: Compound was evaluated for binding affinity against Angiotensin II receptor, type 2 using radioligand binding assay
T7 sequence (P50052 whole entry): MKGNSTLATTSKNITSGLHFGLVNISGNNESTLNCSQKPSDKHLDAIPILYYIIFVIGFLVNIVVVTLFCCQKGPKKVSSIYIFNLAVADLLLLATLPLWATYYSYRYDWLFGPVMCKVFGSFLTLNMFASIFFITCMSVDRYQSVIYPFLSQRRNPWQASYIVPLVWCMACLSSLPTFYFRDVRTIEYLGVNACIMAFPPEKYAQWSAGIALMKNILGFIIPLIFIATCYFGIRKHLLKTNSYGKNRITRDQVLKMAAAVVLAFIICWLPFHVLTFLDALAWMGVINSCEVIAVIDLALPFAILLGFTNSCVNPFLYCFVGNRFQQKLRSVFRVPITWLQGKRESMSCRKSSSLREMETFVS

[14] = target: Serotonin 3 (5-HT3) receptor; assay: Compound was evaluated for binding affinity against 5-hydroxytryptamine 3 receptor using radioligand binding assay; format: protein-complex assay
[15] = target: T8, Alpha-2A adrenergic receptor (Homo sapiens, UniProt P08913); assay: Compound was evaluated for binding affinity against Alpha-2A adrenergic receptor using radioligand binding assay
T8 sequence (P08913 whole entry): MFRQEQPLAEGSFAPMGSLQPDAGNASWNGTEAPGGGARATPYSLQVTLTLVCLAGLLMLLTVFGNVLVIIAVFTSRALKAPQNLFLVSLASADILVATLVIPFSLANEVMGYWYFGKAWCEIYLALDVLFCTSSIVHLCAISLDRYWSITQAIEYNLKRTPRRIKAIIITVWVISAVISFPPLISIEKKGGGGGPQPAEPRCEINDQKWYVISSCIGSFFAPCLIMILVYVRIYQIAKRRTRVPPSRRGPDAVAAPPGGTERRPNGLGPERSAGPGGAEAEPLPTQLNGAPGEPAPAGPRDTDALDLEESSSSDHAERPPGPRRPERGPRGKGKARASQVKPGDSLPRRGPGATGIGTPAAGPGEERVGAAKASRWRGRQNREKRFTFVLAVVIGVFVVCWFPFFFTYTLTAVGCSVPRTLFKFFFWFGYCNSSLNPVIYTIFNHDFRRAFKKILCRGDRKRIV

Sus scrofa [16] = assay: Antagonism of 5-HT-induced tachycardia in anesthetized, vagotomized Yucatan micropigs at 0.03-10 ug/kg dose administered intravenously; format: functional; conditions: iv, read-out: ID50 (the source's name)
D(1A) dopamine receptor = D(1A) dopamine receptor (Homo sapiens, UniProt P21728); assay: Compound was evaluated for binding affinity against Dopamine D1 receptor using radioligand binding assay
[17] = target: 5-hydroxytryptamine receptor 4 (Cavia porcellus, UniProt O70528); assay: Compound was evaluated for binding affinity against 5-hydroxytryptamine 4 receptor using radioligand binding assay using [3H]GR as radioligand
[18] = target: Muscarinic acetylcholine receptor M3 (Homo sapiens, UniProt P20309); assay: Compound was evaluated for binding affinity against Muscarinic M3 receptor using radioligand binding assay
[19] = target: T9, Type-1 angiotensin II receptor (Homo sapiens, UniProt P30556); assay: Compound was evaluated for binding affinity against Angiotensin II receptor, type 1 using radioligand binding assay
T9 sequence (P30556 whole entry): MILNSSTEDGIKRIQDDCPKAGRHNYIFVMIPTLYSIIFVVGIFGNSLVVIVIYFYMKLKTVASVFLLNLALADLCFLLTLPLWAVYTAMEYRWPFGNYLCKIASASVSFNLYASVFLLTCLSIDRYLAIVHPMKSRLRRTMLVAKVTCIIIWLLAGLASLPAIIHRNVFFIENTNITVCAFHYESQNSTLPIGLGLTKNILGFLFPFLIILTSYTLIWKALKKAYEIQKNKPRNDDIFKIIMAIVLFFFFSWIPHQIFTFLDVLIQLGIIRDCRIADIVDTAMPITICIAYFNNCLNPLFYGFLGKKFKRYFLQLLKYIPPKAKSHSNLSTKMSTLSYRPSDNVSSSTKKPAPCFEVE

[20] = target: T10, Alpha-2B adrenergic receptor (Homo sapiens, UniProt P18089); assay: Compound was evaluated for binding affinity against Alpha-2B adrenergic receptor using radioligand binding assay
T10 sequence (P18089 whole entry): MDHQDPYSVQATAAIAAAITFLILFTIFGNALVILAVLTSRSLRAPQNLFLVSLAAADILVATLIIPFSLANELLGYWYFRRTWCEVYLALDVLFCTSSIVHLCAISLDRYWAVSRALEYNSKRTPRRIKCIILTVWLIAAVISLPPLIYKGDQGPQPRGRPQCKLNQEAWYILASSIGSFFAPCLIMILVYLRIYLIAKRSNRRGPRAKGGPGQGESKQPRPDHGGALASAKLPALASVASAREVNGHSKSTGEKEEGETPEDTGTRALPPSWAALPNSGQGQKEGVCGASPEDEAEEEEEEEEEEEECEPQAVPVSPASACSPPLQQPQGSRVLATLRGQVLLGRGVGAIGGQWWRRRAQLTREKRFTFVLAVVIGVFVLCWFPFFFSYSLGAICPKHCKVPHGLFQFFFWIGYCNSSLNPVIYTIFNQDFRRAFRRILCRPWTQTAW

D(2) dopamine receptor = D(2) dopamine receptor (Homo sapiens, UniProt P14416); assay: Compound was evaluated for binding affinity against Dopamine D2 receptor using radioligand binding assay
Sus scrofa [21] = assay: Antagonism of 5-HT-induced tachycardia in anesthetized, vagotomized Yucatan micropigs at 0.1-30 ug/kg dose administered intraduodenally; format: functional; conditions: intraduodenal, read-out: ID50 (the source's name)

5-hydroxytryptamine receptor 4 (Rattus norvegicus), sequence (Q62758 whole entry): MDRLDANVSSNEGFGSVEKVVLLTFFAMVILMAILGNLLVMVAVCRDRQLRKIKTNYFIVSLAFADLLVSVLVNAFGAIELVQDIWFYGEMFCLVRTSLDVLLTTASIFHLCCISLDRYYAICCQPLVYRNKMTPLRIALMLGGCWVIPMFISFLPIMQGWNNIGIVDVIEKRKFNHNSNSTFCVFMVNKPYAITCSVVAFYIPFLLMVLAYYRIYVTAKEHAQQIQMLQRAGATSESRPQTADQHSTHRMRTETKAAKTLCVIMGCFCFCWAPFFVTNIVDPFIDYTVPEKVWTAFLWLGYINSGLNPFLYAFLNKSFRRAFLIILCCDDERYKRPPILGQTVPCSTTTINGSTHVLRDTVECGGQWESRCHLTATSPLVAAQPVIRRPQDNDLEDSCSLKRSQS
Muscarinic acetylcholine receptor M3, sequence (P20309 whole entry): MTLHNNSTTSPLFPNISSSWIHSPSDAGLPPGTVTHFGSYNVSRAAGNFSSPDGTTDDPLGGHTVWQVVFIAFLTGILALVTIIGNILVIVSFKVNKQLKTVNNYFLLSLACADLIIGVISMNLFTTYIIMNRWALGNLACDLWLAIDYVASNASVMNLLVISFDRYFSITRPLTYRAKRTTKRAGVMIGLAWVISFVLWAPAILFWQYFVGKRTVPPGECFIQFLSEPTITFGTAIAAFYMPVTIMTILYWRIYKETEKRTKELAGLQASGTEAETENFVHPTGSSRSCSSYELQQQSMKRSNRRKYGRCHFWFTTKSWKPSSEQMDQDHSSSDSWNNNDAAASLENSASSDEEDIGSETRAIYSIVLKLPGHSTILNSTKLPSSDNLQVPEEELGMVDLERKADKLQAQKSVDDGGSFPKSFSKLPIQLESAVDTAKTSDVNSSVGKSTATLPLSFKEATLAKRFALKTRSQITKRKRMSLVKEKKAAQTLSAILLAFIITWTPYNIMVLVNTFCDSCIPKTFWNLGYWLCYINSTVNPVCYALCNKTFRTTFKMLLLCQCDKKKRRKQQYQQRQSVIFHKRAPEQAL
D(1A) dopamine receptor, sequence (P21728 whole entry): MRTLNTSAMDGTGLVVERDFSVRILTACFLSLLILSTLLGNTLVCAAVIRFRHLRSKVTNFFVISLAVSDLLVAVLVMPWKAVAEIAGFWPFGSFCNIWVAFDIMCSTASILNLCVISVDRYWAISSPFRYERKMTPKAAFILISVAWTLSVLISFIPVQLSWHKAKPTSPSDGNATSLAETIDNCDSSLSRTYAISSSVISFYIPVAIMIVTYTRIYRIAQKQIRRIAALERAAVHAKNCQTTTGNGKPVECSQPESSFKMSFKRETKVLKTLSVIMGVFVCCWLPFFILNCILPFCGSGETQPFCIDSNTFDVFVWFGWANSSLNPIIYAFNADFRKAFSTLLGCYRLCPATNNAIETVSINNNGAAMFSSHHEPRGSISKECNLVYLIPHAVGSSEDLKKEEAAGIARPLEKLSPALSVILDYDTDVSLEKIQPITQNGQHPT
5-hydroxytryptamine receptor 4, sequence (O70528 whole entry): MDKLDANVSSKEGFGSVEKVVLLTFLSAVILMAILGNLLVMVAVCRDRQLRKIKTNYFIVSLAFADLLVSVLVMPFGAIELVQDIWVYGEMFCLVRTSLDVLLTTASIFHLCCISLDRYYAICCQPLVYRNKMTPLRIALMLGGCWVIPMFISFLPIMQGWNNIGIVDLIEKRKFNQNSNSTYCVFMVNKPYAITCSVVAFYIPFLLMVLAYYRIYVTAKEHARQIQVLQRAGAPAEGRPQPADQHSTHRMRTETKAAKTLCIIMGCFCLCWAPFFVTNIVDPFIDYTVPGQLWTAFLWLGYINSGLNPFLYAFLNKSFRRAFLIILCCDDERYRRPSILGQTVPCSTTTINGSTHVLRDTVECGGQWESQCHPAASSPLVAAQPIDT
D(2) dopamine receptor, sequence (P14416 whole entry): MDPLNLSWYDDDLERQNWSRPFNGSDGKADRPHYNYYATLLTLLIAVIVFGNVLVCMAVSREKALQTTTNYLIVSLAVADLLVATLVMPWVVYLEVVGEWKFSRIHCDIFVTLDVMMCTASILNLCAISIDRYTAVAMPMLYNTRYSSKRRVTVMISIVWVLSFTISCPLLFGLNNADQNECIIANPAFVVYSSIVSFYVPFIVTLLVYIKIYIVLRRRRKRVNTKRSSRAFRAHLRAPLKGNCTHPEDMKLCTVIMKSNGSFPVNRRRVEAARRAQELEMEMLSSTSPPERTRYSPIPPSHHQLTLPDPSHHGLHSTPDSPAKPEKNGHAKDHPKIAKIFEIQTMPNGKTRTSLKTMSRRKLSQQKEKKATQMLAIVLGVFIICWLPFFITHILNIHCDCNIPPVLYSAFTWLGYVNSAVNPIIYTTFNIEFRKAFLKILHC
5-hydroxytryptamine receptor 2A, sequence (P28223 whole entry): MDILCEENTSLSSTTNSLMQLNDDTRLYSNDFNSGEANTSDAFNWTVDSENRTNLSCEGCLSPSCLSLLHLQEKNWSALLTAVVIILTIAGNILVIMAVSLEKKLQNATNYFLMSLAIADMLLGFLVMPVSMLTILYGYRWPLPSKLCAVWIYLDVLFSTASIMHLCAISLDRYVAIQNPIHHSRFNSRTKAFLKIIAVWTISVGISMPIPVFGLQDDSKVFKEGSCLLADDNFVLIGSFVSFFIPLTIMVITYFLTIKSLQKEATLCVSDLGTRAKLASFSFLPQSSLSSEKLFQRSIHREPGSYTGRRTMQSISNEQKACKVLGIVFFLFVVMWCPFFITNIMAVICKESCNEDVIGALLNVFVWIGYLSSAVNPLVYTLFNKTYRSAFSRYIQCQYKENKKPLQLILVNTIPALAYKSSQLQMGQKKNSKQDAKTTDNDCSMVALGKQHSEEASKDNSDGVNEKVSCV

pKb [1]: 10.3 | half-life [4]: < 2.5 h
SMILES: CCCCN1CCC(COC(=O)c2cc(Cl)c(N)c3c2OCCO3)CC1
ED50 (Sus scrofa [2]): 8 µg/kg | ID50 (Sus scrofa [3]): inactive

Ki [5]: 1000 nM | Ki [6]: 1260 nM | Ki [7]: 501 nM | Ki [8]: 501 nM | half-life [9]: > 6 h | Ki [10]: 1580 nM | Ki [11]: 316 nM | Ki [12]: 1580 nM | Ki [13]: > 10000 nM | Log Ki [14]: -6.3 | Ki [15]: 100 nM | Ki (D(1A) dopamine receptor): > 10000 nM | Ki [17]: 0.1 nM | Ki [18]: 2000 nM | Ki [19]: > 10000 nM | Ki [20]: 2510 nM | Ki (D(2) dopamine receptor): 316 nM
SMILES: COc1ccc(CCCN2CCC(CCC(=O)c3cc(Cl)c(N)c4c3OCCO4)CC2)cc1OC
ED50 (Sus scrofa [16]): 0.55 µg/kg | ED50 (Sus scrofa [21]): 1.52 µg/kg
